Measurements reported in the supplement of paper PMC8671470.

Legend:
Conditions in all cases: 72 h
[1] = test system: BV-173
How it was run: (§1)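 Fifteen myeloid leukaemia cell lines were seeded in RPMI 1640 at densities titrated to the linear growth range and placed in 384-well plates with acoustically pre-printed compounds at five tenfold doses from 1 to 10,000 nM, in duplicate. After 72 h at 37 °C with 5% CO2, luminescent ATP viability was normalised to vehicle and to a positive control at 10 µM, and curves were fitted with a four-parameter log-logistic model. The IC50 was obtained from these fits.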

[2] = test system: HEL
How it was run: as §1

[3] = test system: HL-60
How it was run: as §1

[4] = test system: K-562
How it was run: as §1

[5] = test system: KCL-22
How it was run: as §1

[6] = test system: KG-1
How it was run: as §1

[7] = test system: KU-812
How it was run: as §1

[8] = test system: LAMA-84
How it was run: as §1

[9] = test system: ML-2
How it was run: as §1

[10] = test system: MOLM-13
How it was run: as §1

[11] = test system: MV4-11
How it was run: as §1

[12] = test system: Mono-Mac-6
How it was run: as §1

[13] = test system: NOMO-1
How it was run: as §1

[14] = test system: SHI-1
How it was run: as §1

[15] = test system: THP-1
How it was run: as §1

[16] = test system: BV-173; assay: cell viability (% survival relative to DMSO control, bortezomib = 0%); higher = less cytotoxic
How it was run: (§2)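 Fifteen myeloid leukaemia cell lines were exposed to compounds at 1, 10, 100, 1000 or 10000 nM in 384-well plates for 72 h at 37 °C and 5% CO2. Viability was read by CellTiter-Glo luminescence and normalised, with vehicle as 100% and a 10 µM positive control as 0%. Values are percent survival averaged over duplicates.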

[17] = test system: HEL; assay: as above
How it was run: as §2

[18] = test system: HL-60; assay: as above
How it was run: as §2

[19] = test system: K-562; assay: as above
How it was run: as §2

[20] = test system: KCL-22; assay: as above
How it was run: as §2

[21] = test system: KG-1; assay: as above
How it was run: as §2

[22] = test system: KU-812; assay: as above
How it was run: as §2

[23] = test system: LAMA-84; assay: as above
How it was run: as §2

[24] = test system: ML-2; assay: as above
How it was run: as §2

[25] = test system: MOLM-13; assay: as above
How it was run: as §2

[26] = test system: MV4-11; assay: as above
How it was run: as §2

[27] = test system: Mono-Mac-6; assay: as above
How it was run: as §2

[28] = test system: NOMO-1; assay: as above
How it was run: as §2

[29] = test system: SHI-1; assay: as above
How it was run: as §2

[30] = test system: THP-1; assay: as above
How it was run: as §2

NS(=O)(=O)c1ccc(NC(=O)Cc2ccccc2)cc1 [4-(2-Phenylacetamido)Benzenesulfonamide]
Conditions | IC50 (cell viability) [µM]
[1] | > 10
[2] | > 10
[3] | > 10
[4] | > 10
[5] | > 10
[6] | > 10
[7] | > 10
[8] | > 10
[9] | > 10
[10] | > 10
[11] | > 10
[12] | > 10
[13] | > 10
[14] | > 10
[15] | > 10

cell viability [%]
Conditions | 1 nM | 10 nM | 100 nM | 1000 nM | 10000 nM
[16] | 118 | 94.8 | 105 | 114 | 92.9
[17] | 106 | 108 | 78.6 | 99 | 106
[18] | 162 | 97.6 | 115 | 106 | 89.7
[19] | 100 | 99.4 | 103 | 112 | 97.2
[20] | 99.8 | 102 | 83.9 | 108 | 93.9
[21] | 99 | 106 | 85.8 | 90 | 103
[22] | 92.1 | 99.1 | 105 | 105 | 107
[23] | 97.4 | 104 | 110 | 97.4 | 102
[24] | 98.7 | 102 | 95.6 | 108 | 102
[25] | 95.7 | 99.9 | 81 | 84.6 | 81.3
[26] | 108 | 109 | 95.7 | 91.3 | 86.6
[27] | 87.8 | 108 | 95.9 | 102 | 96.9
[28] | 97.5 | 102 | 108 | 109 | 107
[29] | 106 | 105 | 91.2 | 102 | 102
[30] | 89.8 | 105 | 109 | 99 | 87.8

NCc1ccc(S(N)(=O)=O)cc1 [4-Homosulfanilamide]
Conditions | IC50 (cell viability) [µM]
[1] | > 10
[2] | > 10
[3] | > 10
[4] | > 10
[5] | > 10
[6] | > 10
[7] | > 10
[8] | > 10
[9] | > 10
[10] | > 10
[11] | > 10
[12] | > 10
[13] | > 10
[14] | > 10
[15] | > 10

cell viability [%]
Conditions | 1 nM | 10 nM | 100 nM | 1000 nM | 10000 nM
[16] | 96.7 | 85.9 | 91.7 | 96.6 | 97.6
[17] | 94.2 | 71.2 | 99.3 | 98 | 106
[18] | 88.1 | 97 | 109 | 82.1 | 110
[19] | 85.1 | 90 | 87.5 | 104 | 102
[20] | 99.7 | 107 | 103 | 103 | 106
[21] | 91.4 | 96 | 97.7 | 99.1 | 96.6
[22] | 97.9 | 93.1 | 96.3 | 100 | 98.1
[23] | 99.5 | 97.7 | 94.7 | 99.3 | 100
[24] | 90.9 | 92.3 | 94.7 | 91.8 | 102
[25] | 80.7 | 93.2 | 87.3 | 80 | 105
[26] | 93.9 | 87.5 | 90.2 | 89.9 | 106
[27] | 107 | 101 | 106 | 96 | 92.3
[28] | 97 | 96.1 | 98.3 | 99.8 | 100
[29] | 96.8 | 107 | 104 | 102 | 111
[30] | 98.5 | 92.5 | 105 | 96.2 | 99.5
